Measurements taken from patent US20060079453A1, “Hla binding peptides and their uses” (priority 2002, published 2006).
Read-outs that look alike come from different tables or passages of the source. No end group written: not given here.

Assays:
Experiment in all cases: biochemical
Format in all cases: binding
[1] = target: HLA-A*0203 (Homo sapiens, UniProt P04439, A173T/D140Y/D185E/D98H/E277Q/G131W/G231S/I119V/I121R/I166T/I218V/L180W/L300P/L318F/N151K/N90K/P208A/P217A/Q86G/Q94H/R138H/R169H/T345S)
[2] = target: HLA-A*0206 (Homo sapiens, UniProt P04439, D140Y/D185E/D98H/E176V/E277Q/F33Y/G131W/G231S/I119V/I121R/I166T/I218V/L300P/L318F/N151K/N90K/P208A/P217A/Q86G/Q94H/R138H/R169H/T345S)
[3] = target: HLA-A*6802 (Homo sapiens, UniProt P04439, A269V/D140Y/D185E/E176V/E277Q/E87N/F33Y/G231S/I121R/I166T/I218V/L180W/L300P/L318F/N151K/P208A/P217A/Q86R/R138H/R169H/S129P/T345S/V36M)
[4] = target: HLA-A*0201 (Homo sapiens, UniProt P04439, D140Y/D185E/D98H/E176V/E277Q/G131W/G231S/I119V/I121R/I166T/I218V/L300P/L318F/N151K/N90K/P208A/P217A/Q86G/Q94H/R138H/R169H/T345S)
[5] = target: HLA-A*0202 (Homo sapiens, UniProt P04439, D140Y/D185E/D98H/E176V/E277Q/G131W/G231S/I119L/I121R/I166T/I218V/L180W/L300P/L318F/N151K/N90K/P208A/P217A/Q67R/Q86G/Q94H/R138H/R169H/T345S)
[6] = A*0203 binding affinity (expressed as an IC50)
[7] = A*0206 binding affinity (expressed as an IC50)
[8] = A*6802 binding affinity (expressed as an IC50)
[9] = A*0201 binding affinity (expressed as an IC50)
[10] = A*0202 binding affinity (expressed as an IC50)

| Compound | IC50 [1, 6] [nM] | IC50 [2, 7] [nM] | IC50 [3, 8] [nM] | IC50 [4, 9] [nM] | IC50 [5, 10] [nM] | IC50 [1] [nM] | IC50 [2] [nM] | IC50 [4] [nM] | other results |
| --- | --- | --- | --- | --- | --- | --- | --- | --- | --- |
| MLLSVPLLL | 41 | 8.4 | 24600 | 9 | 79 |  |  |  |  |
| QLFEDKYAL [QLFEDKYAL] | 380 | 2010 | 2980 | 646 | 1.8 |  |  |  |  |
| VLAGPGPGVTL | 94 | 7200 | 2640 | 1120 | 2.4 |  |  |  |  |
| VLAEAMSKV | 1.4 | 93 | 329 | 230 | 1.8 |  |  |  |  |
| SLLGPGPGAV | 2.6 | 642 | 795 | 95 | 17 |  |  |  |  |
| WLNYTPGPGT |  |  |  |  |  | 231 | > 31600 | 547 | IC50 [3]: 11800 nM; IC50 [5]: 124 nM |
| GLIYSKKRQEV |  |  |  |  |  | 152 | > 8560 | 8970 | IC50 [3]: > 14300 nM; IC50 [5]: 57 nM |
| LLGPGPGV | 123 | 93 | 5620 | 25 | 49 |  |  |  |  |
| ILAEAMSQA |  |  |  |  |  | 1.1 | 8.6 | 29 | IC50 [3]: 253 nM; IC50 [5]: 1 nM |
| LTFGWCFKV |  |  |  |  |  | 1170 | 187 | 15 | IC50 [3]: 9.7 nM; IC50 [5]: 33 nM |
| FAPGFFPYL | 44 | 2.3 | 7.6 | 48 | 0.85 |  |  |  |  |
| FMGVIYIMI | 26 | 98 | 14500 | 13 | 2.1 |  |  |  |  |
| VLRLFVCFLI | 299 | 68200 | 45600 | 2740 | 2110 |  |  |  |  |
| KLTPLCVSL | 240 | 16 | 5950 | 67 | 2.4 |  |  |  |  |
| ATYGIIVPV | 2.8 | 5 | 21 | 3.2 | 2 |  |  |  |  |
| AXAKAAAAL |  |  |  |  |  |  |  |  | IC50 ([1]; read-out: A*0203 binding affinity (expressed as an IC50)): 3300 nM; IC50 ([2]; read-out: A*0206 binding affinity (expressed as an IC50)): 37000 nM; IC50 ([3]; read-out: A*6802 binding affinity (expressed as an IC50)): > 11400 nM; IC50 ([4]; read-out: A*0201 binding affinity (expressed as an IC50)): > 50000 nM |
| LLYSKKRQEIL |  |  |  |  |  | 1570 | > 8560 | > 38200 | IC50 [3]: > 14300 nM |
| YLLGPGPGGI | 3.3 | 89 | 2060 | 180 | 12 |  |  |  |  |
| MTSNPPIPV | 0.39 | 250 | 3.8 | 53 | 16 |  |  |  |  |
| KISAVVGIL | 60 | 1750 | 4950 | 6240 | 42 |  |  |  |  |

| Compound | IC50 [1, 6] [nM] | IC50 [2, 7] [nM] | IC50 [3, 8] [nM] | IC50 [4, 9] [nM] | IC50 [5, 10] [nM] | IC50 [1] [nM] | IC50 [2] [nM] | IC50 [4] [nM] | other results |
| --- | --- | --- | --- | --- | --- | --- | --- | --- | --- |
| ILWQVDRM |  |  |  |  |  | 3000 | 11300 | 1750 | IC50 [3]: > 19500 nM; IC50 [5]: 67 nM |
| FLPGPGPGSV | 4 | 665 | 332 | 98 | 18 |  |  |  |  |
| VLAEAMATA | 0.73 | 8.6 | 33 | 6.7 | 1.4 |  |  |  |  |
| YTPGPGIRYPV | 11100 | 1110 | 9.2 | 7760 | 1990 |  |  |  |  |
| FLFLLYILFL | 2010 | 2110 | 8250 | 2830 |  |  |  |  |  |
| VLVHPQWVV | 1990 | 3220 | 14600 | 464 | 65 |  |  |  |  |
| LQLPPLERV |  |  |  |  |  | 13500 | 203 | 7950 | IC50 [5]: 7710 nM |
| MTGNPSIPV |  |  |  |  |  | 0.43 | 257 | 16 | IC50 [3]: 0.57 nM; IC50 [5]: 1.1 nM |
| VTAKELKFV | 40 | 137 |  | 7140 | 2690 |  |  |  |  |
| YVDDVVLGV | 70 | 16 | 354 | 18 | 14 |  |  |  |  |
| AMAKAAAAT | 84 | 37000 | > 26700 | 15100 |  |  |  |  |  |
| VLAEAMSQT |  |  |  |  |  | 0.65 | 236 | 290 | IC50 [3]: 447 nM; IC50 [5]: 2.2 nM |
| LLWQPIPV | 9.9 | 4250 | 32900 | 137 | 2440 |  |  |  |  |
| VVQAGFFLV | 2500 | 81 | 617 | 440 | 79 |  |  |  |  |
| VLAEAMSRA |  |  |  |  |  | 1 | 20 | 127 | IC50 [3]: 229 nM; IC50 [5]: 0.88 nM |
| WLSGPGPGV | 12 | 885 | 24 | 220 | 2.5 |  |  |  |  |
| KLTPLCVAL [KLTPLCVAL] |  |  |  |  |  | 54 | 11 | 209 | IC50 [5]: 2.3 nM |
| RLDILDLWV |  |  |  |  |  | 1640 | 2640 | 43 | IC50 [3]: > 17800 nM |
| LIFHFFLFLL | 3170 | 1560 | 460 | 200 | 1470 |  |  |  |  |
| IISAVVGIV | 20 | 958 | 390 | 712 | 15 |  |  |  |  |

| Compound | IC50 [1, 6] [nM] | IC50 [2, 7] [nM] | IC50 [3, 8] [nM] | IC50 [4, 9] [nM] | IC50 [5, 10] [nM] | IC50 [1] [nM] | IC50 [2] [nM] | IC50 [4] [nM] | other results |
| --- | --- | --- | --- | --- | --- | --- | --- | --- | --- |
| MMIMIKFMGV | 25 | 109 | 39 | 123 | 19 |  |  |  |  |
| YLLTLWKAGI |  |  |  |  |  | 20 | 40 | 20 | IC50 [3]: 1390 nM; IC50 [5]: 19 nM |
| FLKEPVHGV |  |  |  |  |  | 1.9 | 140 | 44 | IC50 [5]: 0.28 nM |
| FLPSGPGPGV | 3.4 | 64 | 40 | 21 | 1.2 |  |  |  |  |
| CC[C@H](C)[C@H](NC(=O)[C@H](C)NC(=O)[C@H](CO)NC(=O)[C@@H](NC(=O)[C@H](Cc1ccccc1)NC(=O)[C@H](CCC(N)=O)NC(=O)[C@H](C)NC(=O)[C@H](CC(C)C)NC(=O)[C@H](CC(C)C)NC(=O)[C@@H](N)Cc1ccccc1)[C@@H](C)O)C(=O)O | 4.8 | 148 |  | 65 | 1.9 |  |  |  |  |
| LLLPPLERLTL |  |  |  |  |  | 9010 | 45 | 34 | IC50 [3]: > 12800 nM; IC50 [5]: 2610 nM |
| QLVGPGPGMEV | 19 | 919 | 223 | 865 | 17 |  |  |  |  |
| QLVFGPGPGEV | 50 | 4070 | 447 | 2940 |  |  |  |  |  |
| FLGPGPGPSV | 2.5 | 55 |  | 17 | 0.8 |  |  |  |  |
| EILDLWVYHV |  |  |  |  |  | 1870 | 2230 | 496 | IC50 [3]: 163 nM; IC50 [5]: 569 nM |
| FLKEKGGLEGV |  |  |  |  |  | 6.8 | 739 | 322 | IC50 [5]: 3.5 nM |
| KLTPLCVTM |  | 197 | 6290 | 340 | 3.6 |  |  |  |  |
| CC[C@H](C)[C@H](NC(=O)[C@H](CC(=O)O)NC(=O)[C@H](CCC(N)=O)NC(=O)[C@H](CC(C)C)NC(=O)[C@@H](N)[C@@H](C)O)C(=O)N[C@H](C(=O)N[C@@H](CC(C)C)C(=O)N[C@@H](Cc1c[nH]cn1)C(=O)N[C@@H](CC(C)C)C(=O)O)C(C)C | 46 | 781 |  | 22 | 4.4 |  |  |  |  |
| MTSDPPIPV |  |  |  |  |  | 0.45 | 587 | 107 | IC50 [5]: 13 nM |
| IVYSAHDTTV |  | 356 | 737 | 7640 | 91 |  |  |  |  |
| YQDPQNYEL |  | 52 | 167000 | 79 | 18 |  |  |  |  |
| QLVFGGPGPGV |  | 3210 | 1320 | 2150 | 96 |  |  |  |  |
| KLGSLQYL |  |  |  |  |  |  | 9010 | 1860 | IC50 [3]: > 19500 nM; IC50 [5]: 14 nM |
| FLVFLVFSNV |  | 232 | 5390 | 269 |  |  |  |  |  |
| NQMIFVSSI | 3.6 | 14 |  | 250 | 21 |  |  |  |  |
